Measurements from patent publication US6235707A, “Anticoagulant peptidyl-arginine aldehyde derivatives” (Gyogyszerkutato Intezet Kft., priority 1996, dated 2001).

Columns and labels:
[1] = test system: New Zealand white rabbits; test: ex vivo whole blood clotting time (WBCT) in rabbits after p.o. dosing; parameters: species or system rabbit; conditions: p.o. 5 mg/kg
Experimental: The anticoagulant and platelet aggregation inhibiting effect of the compounds of general formula (I) was studied in New Zealand white rabbits ex vivo according to D. Bagdy et al. [Thromb. Haemost. 67, 357 (1992)]. The compounds were dissolved in buffered isotonic saline solution and administered i.v. (0,04-5.0 mg/kg) or by infusion (0.25-5.0 mg/kg/h) or subcutaneously (0.5-6.0 mg/kg) or p.o. (2.5-20 mg/kg). The effect of the compounds was detectable already within 30 minutes following p.o. administration, peak values were attained after 60-180 minutes and the therapeutic level was maintained dose-dependently for 3→6 hours.
The in vivo effect of ethoxycarbonyl-3-cyclobutyl-D-alanyl-L-prolyl-L-arginine aldehyde (1) is presented in detail in Tables 6 and 7. The corresponding values of C1 are listed as controls. The compound was administered p.o. in doses of 5 mg/kg. The blood samples drawn from the caudal vein in every 30-60 minutes were analysed. The whole blood clotting time (WBCT) and the inhibition of thrombin-induced blood platelet aggregation (PAI) were determined. The activated partial thromboplastin time (APTT) and the thrombin time (TT) in the citrate plasma obtained from the blood sample were also measured. The APTT and TT values are compiled in Table 6 and the WBCT and PAI values in Table 7.

clot-bound thrombin = molecular target: T1, clot-bound thrombin (Homo sapiens, UniProt P00734); test: inhibition of plasma clot-bound thrombin (Methods M1, M3); assay type: biochemical; conditions: clot from platelet-rich human plasma; Tos-Gly-Pro-Arg-pNA substrate
T1 construct: from tissue; host or cells: clot of recalcified human platelet-rich plasma
Experimental: Plasma-clot was obtained by recalcificating platelet-rich human plasma, and fibrin gel by clotting human fibrinogen with human thrombin. For the activity measures of fXa and thrombin Z-D-Arg-Gly-Arg-pNA or Tos-Gly-Pro-Arg-pNA substrates were used in agreement with Methods M1-M3.
Preparation of Clots from Human Plasma
a) Platelet-rich plasma is prepared by centrifuging a 9:1 mixture of human blood and 3.8% sodium citrate solution for 5 min. at 240×g.
b) 200 μl platelet-rich plasma and 80 μl 40 mM CaCl2 solution are allowed to stand at room temperature for 1 hour. The thus-formed clot is washed with 6×2 ml of 0.9% NaCl solution with gentle stirring to remove the residual enzymes (thrombin and factor Xa). The washing medium is assayed for thrombin-like activity as follows:
c) To 400 μl of washing medium 100 μl of 1 mM Tos-Gly-Pro-Arg-pNA substrate solution is added, the mixture is incubated for 30 min at 37° C., then the reaction is stopped with 100 μl of 50% acetic acid. From this mixture 150 μl aliquots are applied onto a 96-well microtitre plate and the extinction coefficients are measured at 405 nm (ELISA READER SLT Laborinstrument GmbH, Austria). In case of efficient washing the extinction coefficient is smaller than 5% of that of the control.
Determination of the Inhibition of Clot-bound Thrombin
a) Solutions are made from the peptide inhibitors according to Method M2/a.
b) After draining off the washing medium the clots (Method M1) are mixed with 400 μl of peptide solution (3 parallel samples with each concentration), then the samples are incubated for 5 min. at 37° C. together with a separate 400 μl buffer serving as control. Then 100 μl […] 1 mM Tos-Gly-Pro-Arg-pNA substrate solution is added and the incubation continued for further 30 min. at 37° C. The experiment is continued according to M2/c.

citrate plasma = test: activated partial thromboplastin time (APTT) plasma clotting test; assay type: biochemical; conditions: Table 3; twofold prolongation compared to control; read-out: A: anticoagulant IC50, APTT
Experimental: Anticoagulant activity (i.e. inhibition of the proteolytic reactions in the process) is measured by anticoagulant tests, e.g. in the thrombin time (TT), activated partial thromboplastin time (APTT) and prothrombin time (PT) tests [E. J. W. Bovie et al., Mayo Clinic Laboratory Manual of Haemostasis; W. B. Saunders Co., Philadelphia (1971)]. Plasma, inhibited in spontaneous coagulation, e.g. citrate-plasma, is made to coagulate and the required coagulation time is measured. Upon the action of anticoagulants the coagulation time is prolonged proportionally to the inhibition of the reaction(s) in the process. The anticoagulant effect can be characterised by the substance concentration required to prolong the coagulation time twofold compared to the control (IC50). The effect of anticoagulants on individual coagulant proteases is measured by the amidolytic method [R. Lottenberg et al., Methods in Enzymol. 80, 341 (1981); G. Cleason, Blood Coagulation and Fibrinolysis 5, 411 (1994)]. The isolated active factor (e.g. thrombin, fXa) and its chromogen or fluorogen peptide-amide substrate are reacted in the presence or absence of the inhibitor, resp. The enzyme inhibiting action is characterised by the inhibitory constant (IC50) measured during amidolysis.
In the TT test coagulation is initiated by the thrombin added to the citrate plasma. In the system 22 pmol/ml of thrombin is functioning and its inhibition can be measured on the fibrinogen (one of the natural substrates of thrombin) in the presence of plasma components. In the APTT and PT tests the full coagulation process takes place. Depending on the activator fX is activated either by the extrinsic or the intrinsic pathway. The generated fXa activates prothrombin to thrombin which, in turn, triggers plasma coagulation. The coagulation time is prolonged if the enzymes or one of them is inhibited by the inhibitor. In the APTT and PT tests at most 40 pmol/ml Xa can be generated (this is the full amount of factor X present in both systems) while 150 pmol/ml (APTT) and 350 pmol/ml (PT) of thrombin are generated [B. Kaiser et al., Thromb. Res. 65, 157 (1992)].
The in vitro anticoagulant effects of the compounds of general formula (I) was measured by the prothrombin time (PT), activated partial thromboplastin time (APTT) and thrombin time (TT) tests [D. Bagdy et al., Thromb. Haemost. 67, 325 (1992)]. The fxa-inhibiting effect of the compounds was also determined using the Bz-Ile-Glu-Gly-Arg-pNA chromogen substrate (see method M6).

plasmin (PL) = plasmin (PL) (Homo sapiens, UniProt P00747); test: fibrin-plate method, plasmin; assay type: biochemical
Description: The inhibitory effect of the new compounds of the invention on plasmin (PL) as well as on plasmin formation induced by tissue plasminogen activator (tPA) and urokinase (UK) was examined by the fibrin-plate method [D. Bagdy et al.: Thromb. Haemost. 67, 325 (1992)]. Compounds C1 and C5 served as controls. […] V. Jackson et al.: J. Cardiovasc. Pharmacol. 21, 587 (1993))]. In Table 4 the results obtained with the new compounds 1 and 2 as well as those with controls C1 and C5 are presented as an example.

Chain of plasmin (PL) (P00747 581-810 limits assumed, species assumed): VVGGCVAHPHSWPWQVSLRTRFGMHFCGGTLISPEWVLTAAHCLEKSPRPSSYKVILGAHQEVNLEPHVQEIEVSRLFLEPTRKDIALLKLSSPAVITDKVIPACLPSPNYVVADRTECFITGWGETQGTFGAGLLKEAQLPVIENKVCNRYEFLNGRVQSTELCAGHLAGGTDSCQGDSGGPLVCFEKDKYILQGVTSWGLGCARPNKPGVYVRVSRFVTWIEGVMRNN
Chain of plasmin (PL) (P00747 97-580 partner limits assumed, species assumed): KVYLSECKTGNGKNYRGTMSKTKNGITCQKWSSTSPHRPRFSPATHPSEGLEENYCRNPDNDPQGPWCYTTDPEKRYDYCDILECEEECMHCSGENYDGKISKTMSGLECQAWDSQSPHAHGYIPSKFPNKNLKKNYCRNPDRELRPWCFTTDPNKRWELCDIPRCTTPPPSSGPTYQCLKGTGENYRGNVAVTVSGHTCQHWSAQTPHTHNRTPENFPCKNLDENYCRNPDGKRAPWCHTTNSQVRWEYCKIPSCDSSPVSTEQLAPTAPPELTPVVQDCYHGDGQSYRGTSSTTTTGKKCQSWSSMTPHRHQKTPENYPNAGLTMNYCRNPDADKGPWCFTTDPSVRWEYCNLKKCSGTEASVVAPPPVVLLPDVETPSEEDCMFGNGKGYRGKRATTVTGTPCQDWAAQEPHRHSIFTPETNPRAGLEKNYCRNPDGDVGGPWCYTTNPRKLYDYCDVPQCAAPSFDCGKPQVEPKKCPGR

CCOC(=O)N[C@H](CC1CCC1)C(=O)N1CCC[C@H]1C(=O)N[C@H](C=O)CCCNC(=N)N [Example 1, Ethoxycarbonyl-3-cyclobutyl-D-alanyl-L-prolyl-L-arginine aldehyde]
WBCT relative clotting time ([1]; 0 min): 1.0 | WBCT relative clotting time ([1]; 30 min): 1.52 ± 0.22 | WBCT relative clotting time ([1]; 45 min): 1.58 ± 0.17 | WBCT relative clotting time ([1]; 60 min): 1.88 ± 0.45 | WBCT relative clotting time ([1]; 90 min): 1.73 ± 0.33 | WBCT relative clotting time ([1]; 120 min): 1.98 ± 0.30 | WBCT relative clotting time ([1]; 180 min): 1.43 ± 0.13 | WBCT relative clotting time ([1]; 240 min): 1.12 ± 0.24 | WBCT relative clotting time ([1]; 300 min): 1.18 ± 0.08 | IC50 (clot-bound thrombin): 390 nM | IC50 (citrate plasma): 350 nM | IC50 (plasmin (PL); fibrin plate, hydrolysed area reduced to 50% of control): 39000 nM | B: relative efficiency, PL (plasmin (PL); related to the activity of C1 (1/IC50 = 1)): 1.4 | activity against PL, times lower than that of compound C5 (plasmin (PL); text b147, first of three enzymes): 3.2 times
